This is an account of results in ChEMBL document CHEMBL3272062, “Difference in antimalarial activity between certain amino alcohol diastereomers” (J Med Chem, 1976).

Molecules are shown by their SMILES. Calls of active or inactive are those of the source. The calls are words filed in the database; no cut-off is given here.

Series [1] concerns Plasmodium berghei. As to the kind of experiment: Antimalarial activity against Plasmodium berghei infected in mouse assessed as cure rate at 640 mg/kg, sc measured on day 60 post-infection. The class given is functional, organism-based. Set-up: dose 640 mg/kg.
The test system of series [2] is Plasmodium berghei. In words: Antimalarial activity against Plasmodium berghei infected in mouse assessed as increase in mean survival time at 320 mg/kg, sc. The class given is functional. The conditions noted are these: route subcutaneous.
In series [3] the test system is Plasmodium berghei. As to the kind of experiment: Antimalarial activity against Plasmodium berghei infected in mouse assessed as increase in mean survival time at 80 mg/kg, sc. It counts as functional. The following applies: route subcutaneous.
For series [4], the system named is Plasmodium berghei. In words: Antimalarial activity against Plasmodium berghei infected in mouse assessed as increase in mean survival time at 40 mg/kg, sc. The class given is functional. The conditions noted are these: route subcutaneous.
Series [5] relates to Plasmodium berghei. As to the kind of experiment: Antimalarial activity against Plasmodium berghei infected in mouse assessed as increase in mean survival time at 160 mg/kg, sc. The class given is functional. The conditions noted are these: route subcutaneous.
In a further series the test system is Mus musculus. As to the kind of experiment: Toxicity in sc dosed mouse measured 2 to 5 days post-infection. It counts as organism-based. The following applies: in vivo.
For series [6], the system named is Plasmodium berghei. As to the kind of experiment: Antimalarial activity against Plasmodium berghei infected in sc dosed mouse assessed as increase in mean survival time. It counts as functional, organism-based.

On to `OC(c1cc(C(F)(F)F)nc2c(C(F)(F)F)cccc12)C1CCCNC1` (single isomer, unassigned; diastereomer 2), for which the outcome with Plasmodium berghei [1] was inactive.

With `OC(c1cc(C(F)(F)F)nc2c(C(F)(F)F)cccc12)C1CCCNC1` (single isomer, unassigned; diastereomer 1), the outcome in the series with Plasmodium berghei [1] was Active.

`O=C(O)/C=C/C(=O)O.OC(c1cc(C(F)(F)F)nc2c(C(F)(F)F)cccc12)C1CCCNC1` (single isomer, unassigned; diastereomer 1): the MST was determined as 15.2 days in the series with Plasmodium berghei [2], 10.1 days with Plasmodium berghei [3], 5.9 days in the series on Plasmodium berghei [4] and 11.2 days in the series on Plasmodium berghei [5].

`CN1CCCCC1C(O)c1cc2ccccc2c2cc(Br)ccc12.Cl` (stereo not drawn): the Activity result with Mus musculus is “Toxic”. Moreover, the outcome with Plasmodium berghei [6] was Active.
